Assay results published in patent publication US8524747B2, “Pharmaceutical compositions” (Keio University, priority 2008, dated 2013).

Assays:
[1] = tested on: COX-2; assay: COX-2 expression in macrophage activation (Western blotting); format: cell-based; details: RAW264.7 cells, LPS
Description: RAW264.7 cells were activated under the same conditions as in (4), the cells were recovered, proteins were extracted from the cells in a routine method, and Western blotting was conducted using an anti-COX-2 antibody (BD Bioscience) and an anti-α-tubulin antibody (Sigma Aldrich Japan) at the dilution ratio of 1/3000.

[2] = tested on: NO production; assay: NO production by LPS-activated macrophages (Griess reaction); format: cell-based; details: RAW264.7 cells
Description: After RAW264.7 cells were cultured under the same conditions as in (2) with the media supplemented with DTCM glutarimide-C12 at concentrations (0, 0.1, 0.3, 1.0 and 3.0 μg/mL) for 2 hours, 3.0 μg/mL of LPS was added to the media and the cells were further cultured for 20 hours. Then, NO production amounts were measured by Griess reaction and plotted against the respective DTCM glutarimide-C12 concentrations (the bar graph in FIG. 4).

[3] = tested on: IL-6; assay: IL-6 production by macrophage activation (ELISA); format: cell-based; details: RAW264.7 cells, LPS
Description: RAW264.7 cells were activated under the same conditions as in (4), the cells were recovered, proteins were extracted from the cells by a routine method. An ELISA was conducted using 96-well polystyrene microplates onto which the anti-IL-6 antibody had been immobilized. […] The detected concentrations of IL-6 per 10^6 cells were plotted in FIG. 9.

[4] = tested on: iNOS; assay: iNOS expression in macrophage activation (Western blotting); format: cell-based; details: RAW264.7 cells, LPS
Description: RAW264.7 cells were activated under the same conditions as in (4), the cells were recovered and proteins were extracted from the cells by a routine method. Western blotting was conducted, using an anti-iNOS antibody (Santa Cruz Biotechnology) and an anti-α-tubulin antibody (Sigma Aldrich Japan) at the dilution ratio of 1/3000.

[5] = tested on: NF-κB; assay: DNA binding ability of NF-κB (gel shift assay); format: cell-based; details: RAW264.7 cells
Description: Next, under the same conditions as in (2) above, RAW264.7 cells were cultured with the media supplemented with DTCM glutarimide-C12 at concentrations (0, 0.1, 0.3, 1.0 and 3.0 μg/mL) for 2 hours, to which 3.0 μg/mL of LPS was added, and the cells were further cultured for 30 minutes. Then, nuclear extracts were prepared by a routine method, and a gel shift assay was conducted with using 3 μL of a ^32P-labeled probe.
The probe was prepared as follows. First, 4 μL of 1.75 μmol/mL oligonucleotide (Promega Inc.) (5′-[…]-3′; SEQ ID N0.1), 4 μL of 10×T4 PNK buffer (Takara) and 10 μL of nucleotide free water were mixed, to which 2 μL of [γ-^32P]-ATP (Amarsham Corp.) was added, and incubated at 37° C. for 10 minutes. The reaction was then terminated by addition of 80 μL of TE buffer (10 mM Tris-HCl:1 mM EDTA=1:1). 100 μL of the reaction solution was loaded onto a Nick Column (Amersham Corp.) which had been prepared by removing the filled TE buffer and washing with distilled water, 400 μL of distilled water was loaded, and the eluate from the column was recovered in a 1.5 mL Eppendorf tube. Additional 400 μL of distilled water was loaded, and the fraction eluted again from the column was recovered in the 1.5 mL Eppendorf tube. The elute thus obtained was used as the labeled DNA probe. […]

[6] = tested on: F9 cells; assay: Survival rate and growth of F9 cancer cells; format: cell-based, murine
Description: F9 cells derived from murine embryonic tumor cells (purchased from RIKEN Tsukuba Institute BioResource Center, Cell Engineering Division) were plated onto plastic dishes at 1×10^4 cell/mL in DMEM medium containing 15% FBS. DTCM glutarimide-C12 was then added at the concentration of 0, 0.1, 0.3, 1.0, 3.0, 10.0 or 30.0 μg/mL in the culture media, and were cultured for 24, 48 or 72 hours. By following the same method as described in “Measurement of Cell Survival Rate by Trypan Blue Staining” in Example (10), the survival rates of cells were measured. Also, suspensions of the cultured cells were similarly prepared and the numbers of cells in the suspensions were counted by Coulter Counter (Beckman Coulter Inc.) to evaluate cell growth.

[7] = tested on: RAW264.7 cells; assay: Living cell count by MTT method in LPS-stimulated cells; format: cell-based; details: all concentrations 0.1-3.0 μg/mL, 20 hours
[8] = tested on: RAW264.7 cells; assay: Cytotoxicity on RAW264.7 cells: cell survival rate (trypan blue) and total cell number; format: cell-based; details: after 48 hours
Description: In this example, cytotoxicity of DTCM glutarimide on RAW264.7 cells was evaluated, based on cell survival rate and cell growth rate.
The RAW264.7 cells were seeded on plastic dishes at 1×10^4 cells/ml in DMEM medium containing 10% FBS, to which DTCM glutarimide-C12 was added at the concentration of 0, 0.1, 0.3, 1.0, 3.0 or 10.0 μg/mL to the media. After 24 hours or 48 hours of culture, numbers of total cells were counted using hemacytometer, and numbers of living cells were counted using trypan blue dye exclusion assay.

[9] = tested on: RAW264.7 cells; assay: Inhibition of synthesis of DNA, RNA and protein (3H-thymidine, uridine, leucine incorporation); format: cell-based; details: concentrations up to 10.0 μg/mL, 6 hours + 1 hour label
Description: In this example, the cytotoxicity of DTCM glutarimide on RAW264.7 cells was evaluated, based on the inhibition of synthesis of DNA, RNA and protein.
After RAW264.7 cells were cultured under the same conditions as in (2) with the media supplemented with DTCM glutarimide-C12 at concentrations (0, 0.1, 0.3, 1.0, 3.0 and 10.0 μg/mL) for 6 hours, ^3H-labeled 0.1% thymidine, 0.1% uridine and 0.1% leucine were added to the media and the cells were further cultured for 1 hour. The cells were recovered and radioactivity of TCA-insoluble fractions was measured by using a liquid scintillation counter. The counts obtained at the DTCM glutarimide-C12 concentrations were normalized by setting to 100 the count obtained without addition of DTCM glutarimide-C12 in a control experiment and relatively plotted in the graph shown in FIG. 3.

[10] = tested on: murine bone marrow-derived macrophages; assay: RANKL-induced osteoclast differentiation of murine bone marrow-derived macrophages (TRAP staining); format: cell-based, mouse; details: 0.3, 1.0 and 3.0 μg/mL, RANKL 100 ng/mL, 5 days
Description: The primary murine bone marrow-derived macrophages prepared in Example (10) were plated onto 24-well plates (Corning Inc.) by 500 μL each (1.25 to 3.75×10^6 cell/mL). Then 5 μL of DTCM glutarimide-C12 was added to each of the wells to the final concentrations of 0, 0.3, 1.0 and 3.0 μg/mL. All the experimental groups of plates were cultured at 37° C. under 5% CO2 for 2 hours. hRANKL (Wako Pure Chemical) at 10 μg/mL prepared in PBS containing 0.1% BSA was then added by 5 μL each (final concentration 100 ng/mL), and culture was continued. RANKL has been known as a factor to induce osteoclasts differentiation of macrophages etc. (Kobayashi et al. Crit. Rev Eukaryot Gene Expr. 19(1), 61-72, 2009). The control group of plates was cultured under the same condition but without RANKL and DTCM glutarimide.
After 5 days of culture, the media were removed, and the cells were washed by PBS. 250 μL each of 3.5% paraformaldehyde was added to the wells to fix the cells for 5 minutes, and the fixative was washed away with PBS. […] Following an addition of 250 μL of PBS, the plates were observed under a microscope and the number of mature osteoclasts was counted in the entire visual field by regarding TRAP-positive cell having three or more fused nuclei as the mature osteoclast as it is known to be TRAP-positive.

[11] = tested on: murine bone marrow-derived macrophages; assay: Toxicity on murine bone marrow-derived macrophages (trypan blue dye exclusion); format: cell-based, mouse
Description: An 8 week-old ICR mouse (male, purchased from Charles River) sacrificed by cervical dislocation was dissected under sterile conditions to isolate femora and […] from both legs. Medullary cavities were washed with α-MEM several times using a 21G needle attached to a 1 mL syringe. The fluid (α-MEM) after washing was filtrated through a nylon mesh (330 mesh) to remove unnecessary cells, and myelocytes were isolated. The myelocyte suspension in α-MEM thus obtained was diluted to 1.25 to 3.75×10^6 cell/mL. To 80 mL of the myelocyte suspension, 80 μL of hM-CSF (Wako Pure Chemical) at 10 μg/mL prepared with PBS containing 0.1% BSA was added (final concentration 10 ng/mL). The cells thus prepared were seeded onto 24-well plates (Corning Inc.) by 500 μL to 1 mL per well, and cultured at 37° C. under 5% CO2 for 2 days. Then, unattached cells were washed away with α-MEM, fresh α-MEM containing 10 ng/mL of hM-CSF was added, and the attached cells thus obtained were used as the murine bone marrow-derived macrophages.
The murine bone marrow-derived macrophages thus prepared were seeded onto 24-well plates (Corning Inc.) by 1 mL each (1.25 to 3.75×10^6 cell/mL). To each of the wells, DTCM glutarimide-C12 at respective concentrations of 1.0, 3.0, 10.0 and 30.0 μg/mL was added, and all the experimental groups were cultured at 37° C. under 5% CO2. The control group was cultured under the same condition but without addition of DTCM glutarimide-C12.
The cells in the experimental groups were detached using a cell scraper and dissolved in α-MEM at 24 hours, 48 hours and 72 hours after the addition of DTCM glutarimide-C12. Then 1 mL of the cell suspensions were recovered in fresh Eppendorf tubes. […] 10 μL of the cell suspensions was put onto a hemacytometer (Erma Inc.) and total cells and dead cells were counted under a microscope at 100× magnification. In hemacytometric counting, approximately 100 cells were counted per one visual field, and the cell survival rates obtained in four visual fields were averaged. The cell survival rate (%) was calculated according to the following formula. […]

[12] = 10 μg/mL, positive control, LPS
[13] = 0.1-3.0 μg/mL, 2 hours pretreatment, LPS 3.0 μg/mL, 20 hours

SMILES: O=C(NC1=CC(=O)[C@H]2O[C@H]2[C@H]1O)c1ccccc1O [(−)-DHMEQ, reference compound]
- COX-2 expression ([1]; 10 μg/mL, positive control): COX-2 expression is suppressed
- NO production [2, 12]: NO expression is suppressed
- IL-6 production ([3]; 10 μg/mL, positive control): IL-6 production is suppressed
- iNOS expression ([4]; 10 μg/mL, control): iNOS expression is suppressed
- activity of NF-κB (DNA binding) [5, 12]: the activity of NF-κB is suppressed

SMILES: CCCCCCSC(=O)CC1CC(=O)NC(=O)C1 [DTCM glutarimide-C6]
- NO production [2, 13]: suppresses NO production
- NO production ([2]; 0.1-3.0 μg/mL, 2 hours pretreatment, LPS 3.0 μg/mL, 20 hours, listed as DTCM glutarimide-C16): almost the same results

SMILES: CCCCCCCCCCCCSC(=O)CC1CC(=O)NC(=O)C1 [DTCM glutarimide-C12]
- cell survival rate of F9 cells ([6]; 0.1-30.0 μg/mL, 24, 48 or 72 hours, depending on concentration): significantly reduced
- cell growth of F9 cells ([6]; 0.1-30.0 μg/mL, 24-72 hours, versus group without addition): suppressed
- cell survival rate of F9 cells, 72-hour versus 24-hour and 48-hour culturing ([6]; 10 or 30 μg/mL): significantly reduced cell survival rate
- numbers of living cells (MTT), cell growth [7]: did not affect the cell growth
- COX-2 expression ([1]; 0.1-3.0 μg/mL): prominently suppressed this COX-2 expression in a concentration-dependent manner
- NO production [2, 13]: significantly suppressed this NO production in a concentration-dependent manner
- total cell number (cell growth) ([8]; concentrations up to 1.0 μg/mL): no suppression of cell growth was detected
- cell survival rate (living cell number/total cell number) ([8]; concentrations up to 3.0 μg/mL): no cell killing effect was detected
- inhibition of synthesis of DNA, RNA and protein [9]: no significant inhibitory activity
- IL-6 production ([3]; concentrations below 3.0 μg/mL): did not affect this IL-6 production
- iNOS expression ([4]; 0.1-3.0 μg/mL): prominently suppressed this iNOS expression in a concentration-dependent manner
- number of osteoclasts [10]: significantly reduced
- survival rate ([11]; 3.0 μL groups, regardless of culture time (24, 48, 72 hours)): more than 80%
- survival rate ([11]; 10.0 and 30.0 μg/mL groups, regardless of culture time): reduced
- toxicity on murine myelocyte-derived macrophages ([11]; concentrations up to 3.0 μL): does not exhibit toxicity
- DNA binding ability of NF-κB ([5]; concentrations below 3.0 μg/mL, LPS 30 minutes): did not suppress the DNA binding ability of NF-κB
